Experimental findings from BindingDB's records for doi:10.1021/bi000930v (Max Planck Institute, 2001) are described below.

Where only a bound is given, the exact number is not on record here.

In experiment [1] the target is T1, E3 ubiquitin-protein ligase Mdm2 (Homo sapiens, UniProt Q00987). Nature of the experiment: p53-MDM2 Binding ELISA. As to conditions: pH 7.4; 23 °C. Here is the method: Interference of the p53-MDM2 binding by test compounds was measured in a 96-well polypropylene round-bottom microtiter plate (Costar, Serocluster). Human MDM2 (amino acids 1-118) was preincubated with 10% DMSO or compounds in assay buffer. After 15-min incubation of the sample, a biotinylated p53-derived peptide was added. As a negative control, buffer only was added into separate wells (blanks). After another 30 min, the incubation mixture was added to 96-well plates coated with streptavidin. After 1 h, the wells were extensively washed. Then, the MDM2 specific antibody was added. After 1 h, the wells were thoroughly washed and the secondary antibody (anti-rabbit-IgG-POD) was added. After another hour, the wells were washed, and the peroxidase subtrate ABTS was added. After 30 min, OD 405/490 nm was determined with a Dynatech MR 7000 ELISA reader.
T1 sequence (Q00987 whole entry, the tested form may be a part): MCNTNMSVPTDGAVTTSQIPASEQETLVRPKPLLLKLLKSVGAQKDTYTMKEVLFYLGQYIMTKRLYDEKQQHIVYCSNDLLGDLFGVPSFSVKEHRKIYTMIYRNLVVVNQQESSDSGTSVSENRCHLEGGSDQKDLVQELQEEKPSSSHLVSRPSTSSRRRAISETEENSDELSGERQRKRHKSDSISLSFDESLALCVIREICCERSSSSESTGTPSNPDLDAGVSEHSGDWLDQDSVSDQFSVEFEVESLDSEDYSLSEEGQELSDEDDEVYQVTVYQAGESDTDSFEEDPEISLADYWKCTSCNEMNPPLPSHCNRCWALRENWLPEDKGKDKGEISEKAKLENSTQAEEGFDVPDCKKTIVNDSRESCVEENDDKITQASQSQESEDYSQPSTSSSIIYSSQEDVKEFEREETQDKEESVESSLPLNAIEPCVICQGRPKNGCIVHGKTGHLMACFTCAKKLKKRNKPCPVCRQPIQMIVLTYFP
For orientation: ELISA stands for enzyme-linked immunosorbent assay.

For experiment [2], the target named is T1, E3 ubiquitin-protein ligase Mdm2. In words: NMR Titration Experiment. The conditions noted are these: pH 7.4; 23 °C. How it is done:
NMR measurements consisted of monitoring changes in chemical shifts and line widths of the backbone amide resonances of uniformly 15N-enriched MDM2 samples in a series of HSQC spectra as a function of a ligand concentration. The complexes of human MDM2 and the chalcones were prepared by mixing the protein and the ligand in the NMR tube. Typically, NMR spectra were recorded 15 min after mixing at room temperature. An initial screening of all compounds used in this study was performed with a 10-fold molar excess of chalcone to human MDM2. […] All KD values obtained by NMR spectroscopy are based on at least six data points.

`O=C(O)COc1ccc(/C=C/C(=O)c2ccc(Cl)cc2)cc1` [Chalcone derivative, A] gave an IC50 in experiment [1] of 206 µM. In experiment [2], this compound returned a Kd of 220 µM.

Compound `O=C(O)COc1ccc(C(=O)/C=C/c2ccc(Cl)c(Cl)c2)cc1` [Chalcone derivative, B-1] showed an IC50 in experiment [1] of 117 µM. Also, the Kd in experiment [2] was 150 µM.

Compound `O=C(O)COc1ccc(/C=C/C(=O)c2ccc(Cl)c(Cl)c2)cc1` [Chalcone derivative, B] showed an IC50 in experiment [1] of 49 µM. Besides, the affinity in experiment [2], expressed as Kd, was 90 µM.

In the case of `CC(C)(Oc1ccc(/C=C/C(=O)c2ccc(Cl)cc2)cc1)C(=O)O` [Chalcone derivative, C], in experiment [1], the IC50 was determined as 250 µM. The compound further had a Kd in experiment [2] of 244 µM.

Take `Oc1ccc2ccc3c(c2c1)CN(Cc1ccccc1)CO3` [Chalcone derivative, D]: the IC50 in experiment [1] was over 250 µM.

`CCOC(=O)C(C)(C)Oc1ccc(CCNC(=O)/C=C/C(=O)c2ccc(Cl)cc2)cc1` [Chalcone derivative, E]: the IC50 in experiment [1] was over 250 µM.

In experiment [1], `O=C(CC(=Nc1ccccc1)c1ccccc1)Nc1ccccc1` [Chalcone derivative, F] gave an IC50 of over 250 µM.

In turn, `CCOc1ccc(NC(=O)CC(=Nc2ccccc2)c2ccccc2)cc1` [Chalcone derivative, G] registered an IC50 in experiment [1] of over 250 µM.

`O=C(C(=S)Nc1ccccc1)C(C=Nc1ccccc1)c1ccccc1` (centres undefined) [Chalcone derivative, H]: the IC50 in experiment [1] is over 250 µM.

In experiment [2], `O=C(O)COc1c(Br)cc(/C=C/C(=O)c2ccc3ccccc3c2)cc1Br` [Chalcone derivative, N] showed a Kd of 270 µM.

For orientation: IC50 means the midpoint of a concentration-inhibition curve. Lower therefore signals inhibition by little substance. Broadly, the Kd is the concentration at which binding is half-saturated. Low readings indicate a tighter complex, high ones a looser complex.
